Measured values reported in patent publication US9919060B2 (University Court of the University of Dundee, priority 2009, dated 2018).
Entries after “also recorded” stand apart in the source; their conditions may differ.

Assays:
CYP1A2 = target: T1, CYP1A2 (Homo sapiens, UniProt P05177); assay: Fragmentation of benzofuran ether and carbamate linked coumarins by Supersomal CYP1A2 (coumarin anion release, kinetic fluorimetry); type: biochemical; details: 10 pmol enzyme, 10 μmol dm^−3 prodrug, NADPH, pH 7.4, 37° C., mean ± standard deviation of three measurements
T1 construct: purchased BD Gentest, Oxford, UK
T1 sequence (P05177 2-516 limits assumed): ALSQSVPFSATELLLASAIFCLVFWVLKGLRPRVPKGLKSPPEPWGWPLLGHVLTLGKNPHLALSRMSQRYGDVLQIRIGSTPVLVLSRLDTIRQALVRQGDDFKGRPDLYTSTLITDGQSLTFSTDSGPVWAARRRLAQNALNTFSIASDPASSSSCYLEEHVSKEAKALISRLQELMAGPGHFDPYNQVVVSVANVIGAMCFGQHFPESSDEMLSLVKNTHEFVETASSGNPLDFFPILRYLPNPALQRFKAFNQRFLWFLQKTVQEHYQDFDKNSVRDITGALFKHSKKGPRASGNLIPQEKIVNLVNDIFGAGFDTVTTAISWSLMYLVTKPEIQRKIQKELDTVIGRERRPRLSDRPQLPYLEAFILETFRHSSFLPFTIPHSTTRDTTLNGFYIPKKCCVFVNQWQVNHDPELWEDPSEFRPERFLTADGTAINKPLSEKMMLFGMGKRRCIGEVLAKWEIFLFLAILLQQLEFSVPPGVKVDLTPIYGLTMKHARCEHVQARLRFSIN
Procedure: (§1) Supersomal™ enzyme metabolism was started by adding a stock solution of prodrug dissolved in DMSO to give a final concentration of 10 μmol dm^−3 prodrug and 0.5% DMSO. HLM screening used 60 microliter microsomes, 100 μmol dm^−3 NADPH, in 10 mmol dm^−3 potassium phosphate buffer at pH 7.4 and 37 OC, in 1.5 ml total reaction volume.
(§2) Therefore, enzymatic hydroxylation of the hetero-aromatic trigger and resultant linker fragmentation can be monitored in real time by release of the coumarin anion by kinetic fluorimetry.
(§3) Release of the coumarin anion indicative of linker fragmentation was monitored using a 1 cm path length fluorescence cell in a Cary Eclipse kinetic flourimeter with excitation and emission slits set at 5 nm. Coumarin anion release from compounds of the invention was detected at the excitation wavelength λex=350·nm and the emission wavelength λem=450 nm. Change in fluorescence intensity was quantified against a linear calibration plot of fluorescence intensity versus coumarin concentration (0 to 3.5 μmol dm^−3) in 10 mmol dm^−3 potassium phosphate buffer at pH 7.4 using the same instrument settings as for enzyme metabolism.

CYP1B1 [1] = target: T2, CYP1B1 (Homo sapiens, UniProt Q16678); assay: CYP1B1 substrate prediction model (Gaussian Kernel weighted k-NN)
T2 sequence (Q16678 1-543): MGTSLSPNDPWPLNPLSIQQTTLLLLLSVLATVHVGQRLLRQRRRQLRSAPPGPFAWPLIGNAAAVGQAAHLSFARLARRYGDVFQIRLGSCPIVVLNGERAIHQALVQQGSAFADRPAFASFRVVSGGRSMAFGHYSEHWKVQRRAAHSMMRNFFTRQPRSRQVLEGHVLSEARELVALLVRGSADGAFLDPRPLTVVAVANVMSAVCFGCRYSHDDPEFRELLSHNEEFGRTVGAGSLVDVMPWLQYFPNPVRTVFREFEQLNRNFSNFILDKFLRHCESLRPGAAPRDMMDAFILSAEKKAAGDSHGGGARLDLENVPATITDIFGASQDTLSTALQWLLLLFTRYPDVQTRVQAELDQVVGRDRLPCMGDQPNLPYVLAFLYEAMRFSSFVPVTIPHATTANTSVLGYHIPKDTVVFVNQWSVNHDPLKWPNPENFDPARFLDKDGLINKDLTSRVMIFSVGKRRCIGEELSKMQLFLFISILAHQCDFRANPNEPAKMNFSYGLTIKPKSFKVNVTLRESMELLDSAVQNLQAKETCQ

[2] = system: human liver microsomes (HLM); assay: Fragmentation of benzofuran ether and carbamate linked coumarins by pooled human liver microsomes (coumarin anion release); details: for Specific fragmentation activity, HLM: 60 μl HLM in 1.5 ml final reaction volume, NADPH, pH 7.4, mean ± standard deviation of three measurements
Procedure: as §1, §2, §3

CYP1B1 [3] = target: T2, CYP1B1; assay: Fragmentation of benzofuran ether and carbamate linked coumarins by Supersomal CYP1B1 (coumarin anion release, kinetic fluorimetry); type: biochemical; parameters: purchased BD Gentest, Oxford, UK; details: 10 pmol enzyme, 10 μmol dm^−3 prodrug, NADPH, pH 7.4, 37° C., mean ± standard deviation of three measurements
Procedure: as §1, §2, §3

[4] = system: UTSCC-14 primary human tumour xenograft; assay: Anti-tumour activity in primary human tumour xenograft model (UTSCC-14, subcutaneous, nude mice); type: in vivo; details: for Tumour growth delay at 28 days: 2 cycles: daily for 5 days/2 days off
Procedure: Primary UTSCC-14 cell lines 3×10^6 were implanted subcutaneously in the flank of nude mice. Mice were randomized to 10 animals per group when the tumour volume was 100 to 150 mm^3. SU046-04 was given intraperitoneally at 12, 25 and 50 mg/Kg in PBS versus versus vehicle alone for 2 cycles: daily for 5 days/2 days off. Tumour volume was measured every 4 days using calipers. […] Tumour growth delay at 28 days was 31% at 12 mg/Kg, 56% at 25 mg/Kg, and 90% at 50 mg/Kg with 4/10 complete responses.

CYP1A1 = target: T3, CYP1A1 (Homo sapiens, UniProt P04798); assay: Fragmentation of benzofuran ether and carbamate linked coumarins by Supersomal CYP1A1 (coumarin anion release, kinetic fluorimetry); type: biochemical; parameters: purchased BD Gentest, Oxford, UK; details: 10 pmol enzyme, 10 μmol dm^−3 prodrug, NADPH, pH 7.4, 37° C., mean ± standard deviation of three measurements
T3 sequence (P04798 1-512): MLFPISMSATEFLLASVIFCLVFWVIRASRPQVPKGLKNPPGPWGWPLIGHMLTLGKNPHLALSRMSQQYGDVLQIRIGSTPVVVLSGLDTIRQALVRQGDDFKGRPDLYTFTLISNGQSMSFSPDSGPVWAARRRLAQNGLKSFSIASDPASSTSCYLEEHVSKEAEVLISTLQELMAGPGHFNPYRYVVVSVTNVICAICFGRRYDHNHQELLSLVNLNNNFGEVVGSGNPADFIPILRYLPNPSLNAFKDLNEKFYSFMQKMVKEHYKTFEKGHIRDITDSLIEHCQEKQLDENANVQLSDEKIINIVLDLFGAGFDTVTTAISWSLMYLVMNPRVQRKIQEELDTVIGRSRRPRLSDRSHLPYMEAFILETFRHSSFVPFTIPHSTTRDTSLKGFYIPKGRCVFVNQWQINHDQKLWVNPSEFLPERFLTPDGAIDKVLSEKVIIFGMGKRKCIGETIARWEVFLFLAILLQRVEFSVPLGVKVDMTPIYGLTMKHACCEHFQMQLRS
Procedure: as §1, §2, §3

Structure (SMILES) | Specific fragmentation activity, CYP1A2 (CYP1A2) | % CYP1B1 substrate inhibition, accuracy (predicted versus actual) (CYP1B1 [1]) | Specific fragmentation activity, HLM [2] | further results
COc1ccc2oc(COC(=O)Nc3ccc4c(C)cc(=O)oc4c3)cc2c1 [VG032-05, (5-methoxybenzofuran-2-yl)methyl 4-methyl-2-oxo-2H-chromen-7-ylcarbamate] | no release | – | – | –
C[C@]12CC[C@@H]3c4ccc(O)cc4CC[C@H]3[C@@H]1CC[C@@H]2O [β-estradiol] | – | 95% | – | –
C=C[C@H]1C[N@@]2CC[C@H]1C[C@@H]2[C@@H](O)c1ccnc2ccc(OC)cc12 [quinidine] | – | 64% | – | –
Oc1ccc(C=Cc2cc(O)cc(O)c2)cc1 [resveratrol] | – | 95% | – | –
Cc1cc(=O)oc2cc(NC(=O)OCc3cc4ccccc4o3)ccc12 [SU018-03, benzofuran-2-ylmethyl 4-methyl-2-oxo-2H-chromen-7-ylcarbamate] | no release | – | no release | Specific fragmentation activity, CYP1B1 (CYP1B1 [3]): no release
COc1cc(OC)c2oc(COP(=O)(NCCCl)NCCCl)cc2c1 [SU025-04] | – | 96% | – | –
O=c1cc(-c2ccccc2)oc2c1ccc1ccccc12 [α-napthoflavone, α-naphthoflavone, reference compound] | – | – | – | Effect of α-naphthoflavone on HLM-mediated SU10A fragmentation (coumarin release) ([2]; HLM, inclusion of 10 μmol dm^−3 α-naphthoflavone): inhibits SU10A fragmentation
COc1cc(OC)c2oc(COP(=O)(NCCBr)NCCBr)cc2c1 [SU046-04] | – | 96% | – | Tumour growth delay at 28 days ([4]; 12 mg/Kg intraperitoneally): 31%; Tumour growth delay at 28 days ([4]; 25 mg/Kg intraperitoneally): 56%; Tumour growth delay at 28 days ([4]; 50 mg/Kg intraperitoneally): 90%; Complete responses ([4]; 50 mg/Kg intraperitoneally, 10 animals per group): 4/10; Adverse effects and body weight loss ([4]; after highest exposure 250 mg/Kg): No observed adverse effects or significant body weight loss; Tumour growth compared to the vehicle alone ([4]; all three treatment arms: 12, 25 and 50 mg/Kg intraperitoneally): significant inhibition of tumour growth
Cc1cc(=O)oc2cc(OCc3cc4cc(F)cc(F)c4o3)ccc12 [VG016-05, 7-((5,7-difluorobenzofuran-2-yl)methoxy)-4-methyl-2H-chromen-2-one] | no release | 82% | no release | Specific fragmentation activity, CYP1B1 (CYP1B1 [3]): no fragmentation of the linker; also recorded: no release; Specific fragmentation activity, CYP1B1 (CYP1B1 [3]; listed as VG016-04): inhibits CYP1 isoenzyme and HLM-induced fragmentation; Specific fragmentation activity, CYP1A1 (CYP1A1): no release
COc1cc(OC)c2oc(COC(=O)Nc3ccc4c(C)cc(=O)oc4c3)cc2c1 [VG041-05, (5,7-dimethoxybenzofuran-2-yl)methyl 4-methyl-2-oxo-2H-chromen-7-ylcarbamate] | no release | – | no release | Specific fragmentation activity, CYP1B1 (CYP1B1 [3]): not CYP1A2 or CYP1B1; also recorded: no release
CCOc1ccc2nc3ccc(=O)cc-3oc2c1 [ethoxyresorufin, 7-ethoxyresorufin] | – | 95% | – | –
COc1cc(OC)c2oc(COc3ccc4c(C)cc(=O)oc4c3)cc2c1 [VG035-05, 7-((5,7-dimethoxybenzofuran-2-yl)methoxy)-4-methyl-2H-chromen-2-one] | no linker fragmentation; also recorded: no release | 96% | no linker fragmentation; also recorded: no release | Specific fragmentation activity, CYP1A1 (CYP1A1): no linker fragmentation; also recorded: no release
Nc1ccc(S(=O)(=O)Nc2ccnn2-c2ccccc2)cc1 [sulfaphenazole] | – | 68% | – | –
Cc1cc(=O)oc2cc(OCc3cc4ccccc4o3)ccc12 [SU010A, 7-(benzofuran-2-ylmethoxy)-4-methyl-2H-chromen-2-one] | – | – | – | Specific fragmentation activity, HLM ([2]; listed as SU10A): fragmented; Specific fragmentation activity, CYP1B1 (CYP1B1 [3]; listed as SU10A): fragmented; Specific fragmentation activity, CYP1A2 (CYP1A2; listed as SU10A): fragmented; Specific fragmentation activity, CYP1A1 (CYP1A1; listed as SU10A): fragmented
Cc1cc(=O)oc2cc(NC(=O)OCc3cc4cc(Br)ccc4o3)ccc12 [VG036-05, (5-bromobenzofuran-2-yl)methyl 4-methyl-2-oxo-2H-chromen-7-ylcarbamate] | no release | – | no release | Specific fragmentation activity, CYP1B1 (CYP1B1 [3]): no release; Specific fragmentation activity, CYP1A1 (CYP1A1): no release
